Values joined by “and” are separate entries in the source; they are usually repeats but may differ in a detail not shown here. Equal values may be shown once.
Test system: target lesions of PDAC, CRLM, CCA and HCC
Test: Metabolic radiological response, FDG-PET-CT, EORTC criteria
Format: in vivo, human
Set-up: key to EORTC response after chemotherapy / EORTC response after ITPP / RespITPP_EORTC / RespChemo_EORTC: CMR = complete metabolic response; PMR = partial metabolic response; SMD = stable metabolic disease; PMD = progressive metabolic disease; Median change in metabolic activity, EORTC: concentration or dose not given beside the values; Lesion1_pre_TLG / Lesion1_post_TLG / Lesion1_chemo_TLG / Lesion2_pre_TLG / Lesion2_post_TLG / Lesion2_chemo_TLG / Lesion3_pre_TLG / Lesion3_post_TLG / Lesion3_chemo_TLG / Lesion4_pre_TLG / Lesion4_post_TLG / Lesion4_chemo_TLG / Lesion5_pre_TLG / Lesion5_post_TLG / Lesion5_chemo_TLG: unit not given here
Conditions: for EORTC response after chemotherapy: chemotherapy subsequent to ITPP
Description: Radiological assessment, consisting of abdominal MRI and FDG-PET-CT, was performed before ITPP administration and after the 3-week treatment course. Where possible, radiological re-evaluation was performed after 3–6 cycles of chemotherapy. Radiological responses were evaluated according to the RECIST 1.1 criteria[56] for MRI and EORTC criteria[57] for FDG-PET-CT imaging.
Then first calculate the sum of diameters (DM) and SUV-activities of radiological target lesions before ITPP (sum_pre), after ITPP (sum_post) and after subsequent chemotherapy (sum_chemo) for assessment of morphological RECIST1.1 (diameter) and metabolical EORTC (SUV activiy) responses.
Patient 1 (dropout after only 2 infusions and subsequent death due to rapid oncological progression) is excluded for radiological assessment due to no follow up imaging available.
In a second step, we calculate percent changes (PC) of diameter and SUV activity between before ITPP, after ITPP and after chemotherapy.

[1] = after chemotherapy subsequent to ITPP, 15 patients
[2] = individual patients, lesion 1, after subsequent chemotherapy
[3] = individual patients, lesion 1, post ITPP
[4] = individual patients, lesion 1, pre ITPP (baseline)
[5] = individual patients, lesion 2, after subsequent chemotherapy
[6] = individual patients, lesion 2, post ITPP
[7] = individual patients, lesion 2, pre ITPP (baseline)
[8] = individual patients, lesion 3, after subsequent chemotherapy
[9] = individual patients, lesion 3, post ITPP
[10] = individual patients, lesion 3, pre ITPP (baseline)
[11] = individual patients, lesion 4, after subsequent chemotherapy
[12] = individual patients, lesion 4, post ITPP

O=P1(O)OC2C3OP(=O)(O)OP(=O)(O)OC3C3OP(=O)(O)OP(=O)(O)OC3C2OP(=O)(O)O1 (centres unmarked) [ITPP, Myo-inositol trispyrophosphate]
Median change in metabolic activity, EORTC (CCA, following chemotherapy): −32.39% | Median change in metabolic activity, EORTC (CCA, under ITPP monotherapy): 17.97% | Median change in metabolic activity, EORTC (CRLM, following chemotherapy): −14.64% | Median change in metabolic activity, EORTC (CRLM, under ITPP monotherapy): 40.1% | Median change in metabolic activity, EORTC (HCC, following chemotherapy): −8.47% | Median change in metabolic activity, EORTC (HCC, under ITPP monotherapy): 15.54% | Share of patients with PMR (ITPP monotherapy): 15% | Share of patients with SMD (ITPP monotherapy): 41% | Median change in metabolic activity, EORTC (PDAC, following chemotherapy): −52.19% | Median change in metabolic activity, EORTC (PDAC, under ITPP monotherapy): −3.36% | Metabolic progressions (PMD), EORTC (after ITPP monotherapy): 10 | Partial metabolic responses (PMR), EORTC (after ITPP monotherapy): four | Stable metabolic diseases (SMD), EORTC (after ITPP monotherapy): 11 | Patients with PMD, EORTC [1]: 4 | Patients with PMR, EORTC [1]: 4 | Patients with SMD, EORTC [1]: 7 | Share of patients with PMR (after subsequent chemotherapy): 27% | Share of patients with SMD (after subsequent chemotherapy): 47% | EORTC response after ITPP (individual patients, cohort 1 (1866 mg/m2)): PMD and PMR and SMD | EORTC response after chemotherapy (individual patients, cohort 1, 1866 mg/m2): PMR | EORTC response after ITPP (individual patients, cohort 2 (3732 mg/m2)): SMD and PMR | EORTC response after chemotherapy (individual patients, cohort 2, 3732 mg/m2): SMD and PMR | EORTC response after ITPP (individual patients, cohort 3 (5600 mg/m2)): SMD and PMR | EORTC response after chemotherapy (individual patients, cohort 3, 5600 mg/m2): SMD and PMD | EORTC response after ITPP (individual patients, cohort 4 (7000 mg/m2)): PMD and SMD | EORTC response after chemotherapy (individual patients, cohort 4, 7000 mg/m2): SMD | EORTC response after ITPP (individual patients, cohort 5 (8750 mg/m2)): SMD and PMD | EORTC response after chemotherapy (individual patients, cohort 5, 8750 mg/m2): PMD | EORTC response after ITPP (individual patients, cohort 6 (10500 mg/m2)): PMD and SMD | EORTC response after chemotherapy (individual patients, cohort 6, 10500 mg/m2): PMD and PMR and SMD | EORTC response after ITPP (individual patients, cohort 7 (12390 mg/m2)): PMD and PMR | EORTC response after chemotherapy (individual patients, cohort 7, 12390 mg/m2): SMD | EORTC response after ITPP (individual patients, cohort 8 (14500 mg/m2)): PMD and SMD | EORTC response after chemotherapy (individual patients, cohort 8, 14500 mg/m2): SMD | Lesion1_chemo_SUV [2]: 13.27 and 7.35 and 9.2 and 4.3 and 17.8 and 12.2 and 6.7 and 7.2 and 13.5 and 10.7 and 12.4 and 5.5 and 7.7 and 6.77 | Lesion1_chemo_TLG [2]: 4678.1 and 60.2 and 158.8 and 9.1 and 331.5 and 23.3 and 13.1 and 256.8 and 487.3 and 17.2 and 3.8 and 24.1 | Lesion1_post_SUV [3]: 17.32 and 8.65 and 4.69 and 14.2 and 13.2 and 10.3 and 8.4 and 9.8 and 10.7 and 12.2 and 18.4 and 13.9 and 18.7 and 7.5 and 12 and 8.8 and 12.7 and 10.8 and 45.7 and 4.25 and 11.68 and 7.7 and 10.67 and 9.79 | Lesion1_post_TLG [3]: 7101.9 and 86.3 and 302.7 and 877.7 and 139.3 and 181.7 and 75 and 382.8 and 112.3 and 878.1 and 21.6 and 249.1 and 3441.2 and 63.2 and 62.4 and 4.1 and 71.4 and 2012.6 | Lesion1_pre_SUV [4]: 14.29 and 12.03 and 5.25 and 9.2 and 10.8 and 9.1 and 7.6 and 8 and 8.3 and 7 and 14.1 and 9.3 and 12.4 and 9 and 13.2 and 11 and 12.04 and 21.6 and 5.32 and 11.06 and 6.36 and 11.68 and 11.22 | Lesion1_pre_TLG [4]: 4372.3 and 124.4 and 1117.7 and 865.6 and 104.9 and 699.3 and 37.5 and 197.8 and 43.3 and 531.1 and 1331.5 and 11.5 and 69 and 261.2 and 492.5 and 34.8 and 58.7 and 2.3 and 148.5 and 3074.9 | Lesion2_chemo_SUV [5]: 4.43 and 13.5 and 11.3 and 7.8 and 11.2 and 11 and 7 and 9.4 and 9.6 and 7.5 and 10.3 and 10.5 and 3.4 and 4.42 and 3.74 | Lesion2_chemo_TLG [5]: 4.9 and 33.2 and 133.7 and 36.1 and 149.3 and 14.3 and 27.9 and 32.3 and 3.9 and 12.6 and 26.7 | Lesion2_post_SUV [6]: 4.64 and 3.03 and 11.4 and 7.9 and 6.6 and 12.3 and 14 and 13.6 and 9 and 9.6 and 8.6 and 8.1 and 8.4 and 10.3 and 40.7 and 6.42 and 6.24 and 10.36 and 3.73 | Lesion2_post_TLG [6]: 7.8 and 11.6 and 331.6 and 39.8 and 377.1 and 65.2 and 12.4 and 11.8 and 24.4 and 19.9 and 14.3 and 147.3 and 3.1 | Lesion2_pre_SUV [7]: 3.34 and 10.83 and 7.9 and 7.2 and 3.9 and 7.6 and 11.6 and 13 and 5 and 7.8 and 5.5 and 3 and 10.2 and 13.3 and 20.8 and 5.84 and 5.77 and 11.3 and 4.77 | Lesion2_pre_TLG [7]: 3.9 and 7.1 and 175.5 and 11.2 and 263.8 and 27.2 and 31.1 and 3.3 and 23.7 and 55 and 21.4 and 24.9 and 86.2 and 13.2 | Lesion3_chemo_SUV [8]: 10.68 and 18.07 and 6.5 and 2.3 and 9.2 and 3.6 and 3.1 and 10.9 and 2.7 and 2.5 and 0 | Lesion3_chemo_TLG [8]: 308 and 244.4 and 13.2 and 1 and 42.3 and 3.4 and 0.3 and 0 | Lesion3_post_SUV [9]: 13.38 and 8.25 and 7.8 and 2.7 and 13 and 9.9 and 13.6 and 3.9 and 32.3 and 10.6 and 2.97 and 3.4 | Lesion3_post_TLG [9]: 436.7 and 47.6 and 16.7 and 1.2 and 79.1 and 13.5 and 26.8 and 22.4 and 1.1 and 3.2 | Lesion3_pre_SUV [10]: 12.41 and 13.89 and 10.1 and 2.3 and 3.6 and 5.8 and 13.7 and 2.6 and 10.84 and 19.9 and 10.9 and 2.7 and 7.35 | Lesion3_pre_TLG [10]: 261.7 and 28.6 and 21.7 and 1 and 13.5 and 3.4 and 72.1 and 179.3 and 22.6 and 0.1 and 3.9 | Lesion4_chemo_SUV [11]: 2.5 and 3.2 and 4.7 and 3.72 | Lesion4_chemo_TLG [11]: 1.3 and 2.7 and 0 and 46.4 | Lesion4_post_SUV [12]: 3.5 and 16.1 and 6.1 and 1.6 and 14.37 | Lesion4_post_TLG [12]: 1.3 and 42.9 and 0 and 161.9
